Test results as given in patent EP4603105A1, “PHARMACEUTICAL COMPOSITION CONTAINING CYCLIC COMPOUND HAVING SELECTIVE KRAS INHIBITORY EFFECT AGAINST HRAS AND NRAS” (CHUGAI SEIYAKU KABUSHIKI KAISHA, priority 2022, dated 2024).
Read-outs that look alike come from different tables or passages of the source. *1 amine or outer side, *2 acyl side, *3 side chain or, on linkers, in order; H or OH if unused. Where a SMILES comes first, the peptide text is derived from it. Bridges are numbered along the chain shown (N, C = ends). [ ]: non-standard residue; d: D form. The star is where a group is joined. hPhe(3,5-F2-4-CF3) = N[C@@H](CCc1cc(F)c(C(F)(F)F)c(F)c1)C(=O)O; X23 = O=C([C@H](Cc1ccc(C(F)(F)F)cc1)N(CC1CCCC1)[*:1])[*:2]; hPhe(3-Cl-4-CF3) = N[C@@H](CCc1ccc(C(F)(F)F)c(Cl)c1)C(=O)O; NPrPhe(4-CF3) = CCCN[C@@H](Cc1ccc(C(F)(F)F)cc1)C(=O)O; NMeGly(cPent) = CN[C@H](C(=O)O)C1CCCC1; NMeD = CN[C@@H](CC(=O)O)C(=O)O; NMeL = CN[C@@H](CC(C)C)C(=O)O; αMeS = C[C@](N)(CO)C(=O)O; Morpholide = C1CN(*)CCO1; NMeA = CN[C@@H](C)C(=O)O; Ac5c = NC1(C(=O)O)CCCC1; Aze = O=C(O)[C@@H]1CCN1; Ac4c = NC1(C(=O)O)CCC1; Sar = CNCC(=O)O; tBu = CC(C)(C)*

Key:
[1] = target: GDP-bound NRAS wild-type protein (Homo sapiens, UniProt P01111); assay: Binding to NRAS by surface plasmon resonance (SPR), KD and KD ratio to KRAS
Sequence of GDP-bound NRAS wild-type protein (P01111 whole entry): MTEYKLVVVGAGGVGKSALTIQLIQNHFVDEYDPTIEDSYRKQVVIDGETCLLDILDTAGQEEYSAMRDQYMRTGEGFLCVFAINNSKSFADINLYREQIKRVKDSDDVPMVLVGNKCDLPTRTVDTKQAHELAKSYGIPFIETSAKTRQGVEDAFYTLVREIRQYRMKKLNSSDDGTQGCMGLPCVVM
Procedure, shortened: (§1)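 Each cycle, GDP-bound biotin-Avi RAS was captured (~100–300 RU), compound concentrations were injected low to high for 75 s each at 100 µL/min, then the chip was regenerated. Buffer: HBS pH 7.4, 10 mM MgCl2, 10 µM GDP, 1 mM DTT, 4% DMSO; 30°C. KD from a 1:1 binding model.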

HRAS wild-type protein = HRAS wild-type protein (Homo sapiens, UniProt P01112); assay: Binding to HRAS by surface plasmon resonance (SPR), KD and KD ratio to KRAS
Sequence of HRAS wild-type protein (P01112 whole entry): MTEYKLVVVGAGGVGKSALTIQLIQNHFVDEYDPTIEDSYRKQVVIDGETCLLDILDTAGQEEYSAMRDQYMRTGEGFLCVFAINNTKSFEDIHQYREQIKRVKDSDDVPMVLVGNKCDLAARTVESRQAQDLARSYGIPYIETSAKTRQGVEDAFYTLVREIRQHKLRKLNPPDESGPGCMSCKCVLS
Procedure, shortened: as §1

[2] = tested on: human lung cancer strain NCI-H441; assay type: cell-based
Procedure, shortened: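 Signal came from […] measured per well once the reagent was added. Beforehand, cells were cultured at 37°C and 5% carbon dioxide on a compound series serially diluted in dimethyl sulfoxide.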

[3] = ratio of KD for GDP-bound NRAS wild-type protein to KD for KRAS
[4] = ratio of KD for HRAS wild-type protein to KD for KRAS
[5] = ratio of the KD value with respect to GDP-bound NRAS wild-type protein to the KD value with respect to KRAS
[6] = ratio of the KD value with respect to HRAS wild-type protein to the KD value with respect to KRAS

| Structure (SMILES) | NRAS /KRAS [1, 3] | HRAS /KRAS (HRAS wild-type protein; [4]) | IC50 [2] [nM] | NRAS /KRAS [1, 5] | HRAS /KRAS (HRAS wild-type protein; [6]) | IC50 ([2]; NCI-H441 cells, 4 days, CellTiter-Glo, read-out: NCl-H441 IC50) [nM] | NRAS /KRAS ([1]; ratio of KD value for GDP-bound NRAS wild-type protein to KD value for KRAS (SPR)) | HRAS /KRAS (HRAS wild-type protein; ratio of KD value for HRAS wild-type protein to KD value for KRAS (SPR)) |
| --- | --- | --- | --- | --- | --- | --- | --- | --- |
| CC[C@H](C)[C@@H]1NC(=O)[C@H](CC(C)C)N(C)C(=O)C[C@@H](C(=O)N2CCOCC2)N(C)C(=O)[C@H](C2CCCC2)N(C)C(=O)C2(CCCC2)NC(=O)[C@@H]2CCCN2C(=O)[C@H](CCc2ccc(C(F)(F)F)c(Cl)c2)NC(=O)CN(C)C(=O)[C@H](Cc2ccc(C(F)(F)F)cc2)N(CC2CCCC2)C(=O)[C@@H]2CCN2C(=O)[C@H](C)N(C)C1=O [PP0110] ([NMeL]I[NMeA][Aze][X23][Sar][hPhe(3-Cl-4-CF3)]P[Ac5c][NMeGly(cPent)][NMeD]-Morpholide; lactam N-11) | C (A compound having a KD ratio of 0.1 or more and less than 3 is denoted as C) | B (a compound having 3 or more and less than 10 is denoted as B) | 56.5 | – | – | – | – | – |
| CCC[C@H]1C(=O)N[C@@H](C2CCCC2)C(=O)N(C)CC(=O)N(C)[C@H]2C/C=C\CCN(C2=O)[C@@H](Cc2ccc(C(F)(F)F)cc2)C(=O)N(C)CC(=O)N[C@@H](CCc2ccc(C(F)(F)F)c(Cl)c2)C(=O)N2C[C@H](OCC)C[C@H]2C(=O)NC2(CC(C)(C)C2)C(=O)N(C)[C@@H](CC(C)(C)C)C(=O)N(C)[C@H](C(=O)N(C)C)CC(=O)N1C [PP2971] | A (a compound having 10 or more and less than 20 is denoted as A) | A (a compound having 10 or more and less than 20 is denoted as A) | 5.1 | – | – | – | – | – |
| CC[C@H](C)[C@@H]1NC(=O)[C@@H]2CCCCc3ccc(cc3)C[C@@H](C(=O)N(C)CC(=O)N[C@@H](CCc3ccc(C(F)(F)F)c(OC)c3)C(=O)N3C[C@H](OC(C)C)C[C@H]3C(=O)NC3(CC(C)(C)C3)C(=O)N(C)[C@@H](C3CCCC3)C(=O)N(C)[C@H](C(=O)N(C)CC)CC(=O)N2C)N2CC/C=C\C[C@@H](C2=O)N(C)C(=O)CN(C)C1=O [PP3078] | A (a compound having 10 or more and less than 20 is denoted as A) | B (a compound having 3 or more and less than 10 is denoted as B) | 2.3 | – | – | – | – | – |
| CCC(CC)[C@@H]1NC(=O)[C@H](CC(C)C)N(C)C(=O)C[C@@H](C(=O)N2CCOCC2)N(C)C(=O)[C@H](C2CCCC2)N(C)C(=O)C2(CCCC2)NC(=O)[C@@H]2CCCN2C(=O)[C@H](CCc2cc(F)c(C(F)(F)F)c(F)c2)NC(=O)CN(C)C(=O)[C@H](Cc2ccc(C(F)(F)F)cc2)N2CCCCC[C@@H](C2=O)N(C)C(=O)CN(C)C1=O [PP0523] | – | – | 734 | A (a compound having 10 or more and less than 20 is denoted as A) | B (a compound having 3 or more and less than 10 is denoted as B) | – | – | – |
| CCCN1C(=O)CN(C)C(=O)CN(C)C(=O)[C@H]([C@@H](C)CC)NC(=O)[C@H](CC(C)C)N(C)C(=O)C[C@@H](C(=O)N(C)C)N(C)C(=O)[C@H](C2CCCC2)N(C)C(=O)[C@](C)(COC(C)(C)C)NC(=O)[C@@H]2CCCN2C(=O)[C@H](CCc2cc(F)c(C(F)(F)F)c(F)c2)NC(=O)CN(C)C(=O)[C@@H]1Cc1ccc(C(F)(F)F)cc1 [PP0743] ([NMeL]I[Sar][Sar][NPrPhe(4-CF3)][Sar][hPhe(3,5-F2-4-CF3)]P[αMeS](tBu)[NMeGly(cPent)][NMeD]-NMe2; lactam N-11) | – | – | 76.3 | B (a compound having 3 or more and less than 10 is denoted as B) | C (A compound having a KD ratio of 0.1 or more and less than 3 is denoted as C) | – | – | – |
| CCCN1C(=O)[C@@H]2CCN2C(=O)CN(C)C(=O)[C@H]([C@@H](C)CC)NC(=O)[C@H](CC(C)C)N(C)C(=O)C[C@@H](C(=O)N(C)C)NC(=O)[C@H](C2CCCC2)N(C)C(=O)C2(CCC2)NC(=O)[C@@H]2CCCN2C(=O)[C@H](CCc2ccc(C(F)(F)F)c(Cl)c2)NC(=O)CN(C)C(=O)[C@@H]1Cc1ccc(C(F)(F)F)cc1 [PP0386] ([NMeL]I[Sar][Aze][NPrPhe(4-CF3)][Sar][hPhe(3-Cl-4-CF3)]P[Ac4c][NMeGly(cPent)]D-NMe2; lactam N-11) | C (A compound having a KD ratio of 0.1 or more and less than 3 is denoted as C) | B (a compound having 3 or more and less than 10 is denoted as B) | 29.6 | – | – | – | – | – |
| CCC[C@H]1C(=O)N[C@@H]([C@@H](C)CC)C(=O)N(C)CC(=O)N(C)[C@H]2C/C=C\CCN(C2=O)[C@@H](Cc2ccc(C(F)(F)F)cc2)C(=O)N(C)CC(=O)N[C@@H](CCc2cc(F)c(Cl)c(OC)c2)C(=O)N2C[C@H](OCC)C[C@H]2C(=O)NC2(CC(C)(C)C2)C(=O)N(C)[C@@H](C2CCCC2)C(=O)N(C)[C@H](C(=O)N(C)C)CC(=O)N1C [PP2864] | A (a compound having 10 or more and less than 20 is denoted as A) | A (a compound having 10 or more and less than 20 is denoted as A) | – | – | – | 124 | – | – |
| CCO[C@@H]1C[C@H]2C(=O)NC3(CCC3)C(=O)N(C)[C@@H](C3CCCC3)C(=O)N[C@H](C)CC(=O)N(C)[C@@H](CC)C(=O)N[C@@H]([C@@H](C)CC)C(=O)N(C)CC(=O)N(C)[C@H]3C/C=C\CCN(C3=O)[C@@H](Cc3ccc(C(F)(F)F)cc3)C(=O)N(C)CC(=O)N[C@@H](CCc3cc(F)c(C(F)(F)F)c(F)c3)C(=O)N2C1 [PP1098] | B (a compound having 3 or more and less than 10 is denoted as B) | B (a compound having 3 or more and less than 10 is denoted as B) | 101 | – | – | – | – | – |
| CC[C@H](C)[C@@H]1NC(=O)[C@H](C)N(C)C(=O)C[C@@H](C(=O)N(C)C)N(C)C(=O)[C@H](C2CCCC2)N(C)C(=O)C2(CCC2)NC(=O)[C@@H]2CC(F)(F)CN2C(=O)[C@H](CCc2cc(F)c(C(F)(F)F)c(F)c2)NC(=O)CN(C)C(=O)[C@H](Cc2ccc(C(F)(F)F)cc2)N2CC/C=C\C[C@@H](C2=O)N(C)C(=O)CN(C)C1=O [PP1103] | A (a compound having 10 or more and less than 20 is denoted as A) | B (a compound having 3 or more and less than 10 is denoted as B) | 34.8 | – | – | – | – | – |
| CC[C@H](C)[C@@H]1NC(=O)[C@H](CC(C)C)N(C)C(=O)C[C@@H](C(=O)N(C)C)N(C)C(=O)[C@H](C2CCCC2)N(C)C(=O)C2(CCC2)NC(=O)[C@@H]2[C@@H](OCC(F)F)CCN2C(=O)[C@H](CCc2cc(F)c(C(F)(F)F)c(F)c2)NC(=O)CN(C)C(=O)[C@H](Cc2ccc(C(F)(F)F)cc2)N2CC/C=C\C[C@@H](C2=O)N(C)C(=O)CN(C)C1=O [PP1534] | – | – | 24.7 | – | – | – | AA (a compound having 20 or more is denoted as AA) | A (a compound having 10 or more and less than 20 is denoted as A) |
| CCC(CC)[C@H]1C(=O)N(C)[C@H](C(=O)N(C)C)CC(=O)N(C)[C@H]2CCC/C=C/c3ccc(cc3)C[C@@H](C(=O)N(C)CC(=O)N[C@@H](CCc3cc(F)c(C(F)(F)F)c(F)c3)C(=O)N3C[C@H](OC(C)C)C[C@H]3C(=O)NC3(CC(C)(C)C3)C(=O)N1C)N1CC/C=C\C[C@@H](C1=O)N(C)C(=O)CN(C)C(=O)[C@H]([C@@H](C)CC)NC2=O [PP2594] | A (a compound having 10 or more and less than 20 is denoted as A) | A (a compound having 10 or more and less than 20 is denoted as A) | 6 | – | – | – | – | – |
